Reference: US12590124B2, “Peptide with neutralizing activity against severe acute respiratory syndrome coronavirus 2” (CAREGEN CO, LTD., priority 2020, dated 2026)
Like-named read-outs stand apart in the source and are kept apart here. Where no end group is shown, it is not given here.

Test system: SARS-CoV-2
Details: 1 h

Substance | Inhibition rate (2.5 mM) [%] | Inhibition rate (10 mM) [%]
KFNRRHH [SEQ ID NO: 2, KFNRRHH] | 51 | 96
KYLLVHRPYYRR [SEQ ID NO: 3, KYLLVHRPYYRR] | 98 | 98
RSYMTTHHEQF [SEQ ID NO: 1, RSYMTTHHEQF] | 21 | 100
WVPYQARVPYPR [SEQ ID NO: 4, WVPYQARVPYPR] | 55 | 98
